Data: patent US20210330756A1, “Acetylation of Miro1” (University of South Carolina, priority 2020, published 2021)

Assays:
adult DRG neurons = experiment: Axon growth of DRG neurons on laminin or substrate-bound aggrecan (CSPG); assay type: cell-based, rat; conditions: 10 μM TubA, 24 h
Text: MAG and CSPGs are more often tested as surface-bound substrates than with the bath applications used here. Thus, we tested whether bath application of growth inhibitors would cause growth cone retraction in a manner similar to surface-bound inhibitors. […] RhoA activation is a well-known downstream mediator for the growth-inhibitory effects of both MAG and CSPGs (Fujita and Yamashita, 2014), so we tested whether the RhoA/ROCK pathway contributes to the impact of aggregan on mitochondria distribution in growth cones.
MAG or Aggrecan exposures were performed as bath application or on coated substrates. For bath application, dissociated DRGs were cultured for 48 h and treated with 25 μg/ml of MAG-Fc (R&D Systems; 538-MG), 25 μg/ml Fc control (R&D Systems; 110-HG), or 10 μg/ml of Aggrecan (Sigma-Aldrich; A1960) for 4 h. Cultures were pretreated with either Ca^2+ chelator BAPTA-AM (3 μM; Sigma-Aldrich; A1076), ROCK inhibitor Y27632 (10 μM; Sigma-Aldrich; SCM075), HDAC6 inhibitor TubA (10 μM; R&D Systems; 6270), Thapsigargin (1 μM; Sigma-Aldrich; T9033), Rho Activator II (1 μg/ml; Cytoskeleton; CNO3), or equivalent volume DMSO 30 min before MAG-Fc, Aggrecan, or controls. […]
NF-stained cultures were used for neurite growth analyses. […] The growth cone area was measured using ImageJ software from these annotated DIC images. […]

[1] = tested on: distal axons and growth cones of DRG neurons; experiment: CALI of Mito-KR to ablate mitochondria in distal axons of DRG cultures; assay type: cell-based, rat
Text: For this, we turned to chromophore-assisted light inactivation (CALI) to ablate mitochondria from distal axons of DRG cultures expressing mitochondrial-targeted Killer Red (Mito-KR) protein. CALI of KR protein generates reactive oxygen species (ROS) to ˜1,000-fold higher than the fluorescent emission eGFP generates (Sano et al., 2014). Increased ROS production upon CALI of Mito-KR protein leads to mitochondrial damage and ablation of mitochondrial function, including the axonal mitochondria targeted in our experiments (Shibuya and Tsujimoto, 2012; Spillane et al., 2013).
For mitochondrial ablation by CALI, DRG cultures expressing Mito-KR and BFP for 48 h were imaged with the same confocal microscope. Mito-KR was activated with an argon laser at 514 nm continuously for 30 s until there was no detectable signal (100% laser power). After activation, 50 μm of the distal axon shaft and the growth cone were imaged every 30 s over 16 min using 585- and 405-nm laser lines (13 and 15.3% power, respectively).
Vesicle trafficking was quantified using differential ImageJ Difference Tracker Plug-in (Andrews et al., 2010). 50-80-μm long unbranched axon segments at approximately the mid-region between growth cone and cell body were analyzed. Kymographs were generated using ImageJ Kymograph Plug-in. […] The distance between the growth tip at end of the post-CALI sequence and the pre-CALI baseline was measured using LAS-X software. Movement of ≥0.5 μm toward the axon shaft was counted as retracted. Fluorescence emission of the Mito-KR post-CALI was analyzed using ImageJ. For normalizing intensities across FRAP image sets, fluorescence intensity at each time point was scaled using the LAS-X FRAP module so that the residual fluorescence signal at t=0 min (post-bleach) was set at 0 and the prebleach intensity was set at 100% for each bleached ROI. For axon shaft FRAP analyses, each 50-μm bleached ROI was divided into […], and the fluorescence intensity recovery was measured as described above. […] A minimum of 75 unmyelinated axons was analyzed for each nerve. […]

[2] = laminin, TubA 10 μM 1 h or siRNA cotransfection, vs vehicle/siControl

CN1CCc2c(c3ccccc3n2Cc2ccc(C(=O)NO)cc2)C1 [TubA, tubastatin]
effect on attenuation of axon growth by substrate-bound aggrecan (adult DRG neurons): prevented by TubA exposure
effect on MAG-Fc-dependent decrease in Mito-KR recovery after CALI ([1]; MAG-Fc + 10 μM TubA): reversed
growth cone retraction after CALI mitochondrial ablation [1, 2]: majority of the TubA-treated cultures showed no growth cone retraction
recovery of Mito-KR fluorescence in ROI after CALI [1, 2]: significant recovery of mitochondrial fluorescence
